Reference: US9090593B2, “Bicyclic compounds as Pim inhibitors” (AMGEN INC., priority 2010, dated 2015)

What was measured:
[1] = target: T1, full length recombinant Pim-1 protein (Homo sapiens, UniProt P11309); experiment: Pim-1 enzyme assay (HTRF, phosphorylation of biotinylated-BAD (S112) peptide); assay type: biochemical; conditions: read-out: Pim_1_IC50
T1 construct: by full length recombinant Pim-1, Pim-2, or Pim-3 protein; hexahistidine tag followed by a thrombin cleavage site (N); made in house; host or cells: Sf9 (baculovirus) or E. coli (pET28)
Source text: (§1) These cDNAs were used as templates in PCR reactions to produce full-length DNA clones of the PIMs. […] PCR products were digested with […] and EcoRI for Pim-1 and BamHI and EcoRI for Pim-2 and ligated into a modified baculovirus transfer vector (pFastBac1) cleaved with BamHI and EcoRI. For bacterial expression, the same cleaved PCR products encoding Pim-1 or Pim-2 were ligated into a modified E. coli expression vector pET28(a) cleaved with BamHI and EcoRI Amino-terminal hexahistidine tags followed by a thrombin cleavage site were previously added to the vectors using standard methods of molecular biology. Recombinant baculoviruses expressing Pim-1 or Pim-2 were made using standard methods (Fastbac manual, Invitrogen, Carlsbad, Calif.). Infection of Sf9 cells was done at an m.o.i. of greater than 5 for 24-48 h. Cells were harvested by centrifugation and frozen at −80 C. For E. coli expression, cells carrying pET28-His6-Th-Pim-1 or pET28-His6-Th-Pim-2 were picked from a single colony and grown o/n in LB media. The o/n culture was used to inoculate a 2 liter flask with 500 mL media. This was grown o/n and used to inoculate 15-20 liters of Terrific Broth in a New Brunswick Scientific fermentor. The E. coli were grown at 37° C. to and OD600>1.6. The temperature was dropped to 18° C. and o/n expression was induced with 0.5 mM IPTG. Cells were harvested by centrifugation and frozen at −80° C.
(§2) This step was repeated 3× and the resin was transferred to a 2.5 cm glass column. Ten column volumes of wash buffer (0.05 M HEPES, pH 8.0, 0.1 M NaCl, 0.01 M 2-mercaptoethanol, 10% (w/v) glycerol) were applied to the resin followed by 10 column volumes of elution buffer (0.05 M HEPES, pH 8.0, 0.25 M NaCl, 0.01 M 2-mercaptoethanol, 10% (w/v) glycerol, 0.1 M imidazole). Fractions were analyzed by SDS-PAGE and those containing the protein of interest were pooled and concentrated. The concentrated protein was applied to an Amersham Superdex 75 (XK 26/60) column equilibrated in 0.025 M Tris-HCl, pH 7.5, 0.1 M NaCl, 0.01 M 2-mercaptoethanol, 10% (w/v) glycerol. […] Fractions containing the monomeric protein of interest were pooled, concentrated to ˜2 mg/mL, and stored at −80° C.
(§3) The phosphorylation of biotinylated-BAD (S112) peptide by full length recombinant Pim-1, Pim-2, or Pim-3 protein was detected with streptavidin:Allophycocyanin (APC) conjugate and a europium (Eu) labeled antibody directed against phosphorylated-BAD (S112). […] The fluorescence is directly proportional to the amount of phosphorylated BAD peptide present in the reaction.
(§4) A reference compound was included on each assay plate in order to validate that plate; on one plate of every assay run, two additional reference compounds were included.
(§5) The final buffer conditions were as follows: 60 mM Hepes, pH 7.0, 0.05% BSA, 2 mM DTT. […] The reaction was stopped by the addition of 3 mM EDTA, and fluorescence was measured by an HTRF® Rubystar microplate reader. For each plate, percent of control (POC) values were calculated for each well. Values for the IC50 IP were estimated using a standard 4-parameter logistic model.

[2] = target: T2, full length recombinant Pim-2 protein (Homo sapiens, UniProt Q9P1W9); experiment: Pim-2 enzyme assay (HTRF, phosphorylation of biotinylated-BAD (S112) peptide); assay type: biochemical; conditions: read-out: Pim2_IC50
T2 construct: by full length recombinant Pim-1, Pim-2, or Pim-3 protein; hexahistidine tag followed by a thrombin cleavage site (N); made in house; host or cells: Sf9 (baculovirus) or E. coli (pET28)
Source text: as §1, §2, §3, §4, §5

T1 sequence (P11309 whole entry): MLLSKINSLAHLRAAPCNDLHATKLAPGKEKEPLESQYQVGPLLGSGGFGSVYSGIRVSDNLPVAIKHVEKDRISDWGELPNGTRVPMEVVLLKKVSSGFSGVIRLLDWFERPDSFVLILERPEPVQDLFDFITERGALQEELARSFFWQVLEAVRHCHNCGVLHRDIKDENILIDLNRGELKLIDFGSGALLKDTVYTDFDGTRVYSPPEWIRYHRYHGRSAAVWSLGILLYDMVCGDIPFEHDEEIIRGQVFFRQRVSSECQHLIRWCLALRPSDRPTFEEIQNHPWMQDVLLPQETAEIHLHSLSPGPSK
T2 sequence (Q9P1W9 whole entry): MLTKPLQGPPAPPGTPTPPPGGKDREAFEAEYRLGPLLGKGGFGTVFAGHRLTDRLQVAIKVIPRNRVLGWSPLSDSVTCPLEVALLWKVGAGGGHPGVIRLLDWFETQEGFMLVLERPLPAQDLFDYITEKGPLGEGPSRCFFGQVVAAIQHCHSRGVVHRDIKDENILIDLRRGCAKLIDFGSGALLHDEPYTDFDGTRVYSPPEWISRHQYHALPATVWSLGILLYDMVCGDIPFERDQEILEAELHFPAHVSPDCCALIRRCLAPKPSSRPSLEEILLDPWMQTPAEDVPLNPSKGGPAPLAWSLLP

SMILES | IC50 [1] [nM] | IC50 [2] [nM]
C[C@@H]1COCCN1c1ccc2[nH]nc(-c3cncc(O[C@H]4CNCCC45CC5)n3)c2c1 [Example 403] | 70 | 58
Brc1ccc2[nH]nc(-c3cncc(O[C@H]4CNCCC45CC5)n3)c2c1 [Example 422] | 22 | 82
CNC(=O)c1ccc2[nH]nc(-c3cncc(NC4CCNCC4)n3)c2c1 [Example 471] | 171 | 329
CNC(=O)c1ccc2[nH]nc(-c3cncc(O[C@@H]4CCCNC4)n3)c2c1 [Example 478] | 180 | > 1000
COC(=O)c1ccc2[nH]nc(-c3nccc(NC4CCNCC4)n3)c2c1 [Example 485] | 26 | 26
CN(C)C(=O)c1ccc2[nH]nc(-c3cncc(NC4CCNCC4)n3)c2c1 [Example 487] | 159 | 217
CC1CCCCN1c1nc(-c2ccc3[nH]cc(-c4cncc(O[C@@H]5CCCNC5)n4)c3c2)cs1 (stereo partly drawn) [Example 501] | 91 | 812
c1ncc(-c2ccc3[nH]cc(-c4cncc(O[C@@H]5CCCNC5)n4)c3c2)cc1NC1CC1 [Example 502] | 20 | 424
Clc1cncc(-c2ccc3[nH]cc(-c4cncc(O[C@@H]5CCCNC5)n4)c3c2)c1 [Example 505] | 29 | 225
CC(C)Oc1cncc(-c2ccc3[nH]cc(-c4nnc(N[C@H]5CCNC5)o4)c3c2)n1 [Example 511] | 98 | 480
CC(C)Oc1cncc(-c2ccc3[nH]cc(-c4nnc(N[C@@H]5CCNC5)o4)c3c2)n1 [Example 512] | 47 | 93
CC(C)Oc1cncc(-c2ccc3[nH]cc(-c4nnc(NC5CCNCC5)o4)c3c2)n1 [Example 513] | 48 | 218
CC(C)Oc1cncc(-c2ccc3[nH]cc(-c4nnc(N[C@H]5CCCNC5)o4)c3c2)n1 [Example 514] | 52 | 194
CC(C)Oc1cncc(-c2ccc3[nH]cc(-c4nnc(N5CCCC5)o4)c3c2)n1 [Example 520] | 52 | 527
c1cnc(-c2c[nH]c3ccc(-c4cncc(C5CC5)n4)cc23)cn1 [Example 521] | 425 | > 1000
CC(C)Nc1nnc(-c2c[nH]c3ccc(-c4cncc(OC(C)C)n4)cc23)o1 [Example 522] | 90 | 446
CC(C)Oc1cncc(-c2ccc3[nH]cc(-c4nnc(Nc5ccccc5)o4)c3c2)n1 [Example 523] | 359 | > 1000
COC(=O)c1ccc2[nH]cc(-c3nccc(N[C@@H]4CCCNC4)n3)c2c1 [Example 531] | 20 | 182
COC(=O)c1ccc2[nH]cc(-c3cncc(N[C@@H]4CCCNC4)n3)c2c1 [Example 532] | 4 | 56
COC(=O)c1ccc2[nH]cc(-c3ccnc(N[C@@H]4CCCNC4)n3)c2c1 [Example 533] | 105 | 237
N#Cc1ccc2[nH]cc(-c3cncc(N[C@@H]4CCCNC4)n3)c2c1 [Example 536] | 30 | 208
O=C(O)c1ccc2[nH]cc(-c3cncc(N[C@@H]4CCCNC4)n3)c2c1 [Example 538] | 241 | > 1000
O=C(O)c1ccc2[nH]cc(-c3nccc(N[C@@H]4CCCNC4)n3)c2c1 [Example 539] | 834 | > 1000

More lines, now with the values ahead:

IC50 [1] [nM] | IC50 [2] [nM] | SMILES
159 | 447 | O=C1COCCN1c1ccc2[nH]nc(-c3cncc(O[C@H]4CNCCC45CC5)n3)c2c1 [Example 405]
322 | 629 | Oc1cncc(-c2n[nH]c3ccc(-c4ccccc4F)cc23)n1 [Example 435]
20 | 43 | CN1CCC(Oc2cncc(-c3n[nH]c4ccc(-c5c(F)cccc5F)cc34)n2)CC1 [Example 445]
105 | 137 | O[C@@H]1CN(c2cncc(-c3n[nH]c4ccc(-c5c(F)cccc5F)cc34)n2)C[C@@H]1O [Example 448]
159 | 639 | OC1CN(c2cncc(-c3n[nH]c4ccc(-c5c(F)cccc5F)cc34)n2)CC1O (stereo not drawn) [Example 449]
159 | 453 | OC1CN(c2cncc(-c3n[nH]c4ccc(-c5c(F)cccc5F)cc34)n2)CC1O (stereo not drawn) [Example 450]
4 | 17 | Nc1ncc(-c2ccc3[nH]nc(-c4cncc(O[C@H]5CNCCC56CC6)n4)c3c2)cn1 [Example 464]
112 | 617 | COc1cc(N2CCC(N)CC2)nc(-c2n[nH]c3ccc(-c4c(F)cccc4F)cc23)n1 [Example 472]
30 | 192 | CNC(=O)c1ccc2[nH]nc(-c3cncc(N[C@@H]4CCCNC4)n3)c2c1 [Example 475]
112 | 77 | COc1cc(N[C@@H]2CCCNC2)nc(-c2c[nH]c3ccc(-c4c(F)cccc4F)cc23)n1 [Example 479]
106 | 203 | CNC(=O)c1ccc2[nH]nc(-c3cncc(N4CCC(N)CC4)n3)c2c1 [Example 480]
444 | 719 | CN(C)C(=O)c1ccc2[nH]nc(-c3ccnc(N[C@@H]4CCCNC4)n3)c2c1 [Example 481]
374 | > 1000 | CN(C)C(=O)c1ccc2[nH]nc(-c3cncc(N4CCC(N)CC4)n3)c2c1 [Example 484]
72 | 543 | COC(=O)c1ccc2[nH]nc(-c3nccc(N[C@@H]4CCCNC4)n3)c2c1 [Example 486]
46 | 55 | COC(=O)c1ccc2[nH]nc(-c3nccc(N4CCC(N)CC4)n3)c2c1 [Example 488]
46 | 109 | CN(C)c1nc(-c2c[nH]c3ccc(-c4c(F)cccc4F)cc23)cc(=O)[nH]1 [Example 492]
834 | 653 | COc1cc(-c2c[nH]c3ccc(-c4c(F)cccc4F)cc23)nc(O[C@@H]2CCCNC2)n1 [Example 493]
834 | > 1000 | CN(C)C(=O)c1ccc2[nH]nc(-c3cncc(N[C@@H]4CCCNC4)n3)c2c1 [Example 494]
159 | > 1000 | CN(C)c1cc(=O)[nH]c(-c2c[nH]c3ccc(-c4c(F)cccc4F)cc23)n1 [Example 496]
46 | 207 | COC(=O)c1ccc2[nH]nc(-c3ccnc(O[C@@H]4CCCNC4)n3)c2c1 [Example 497]
70 | 726 | COC(=O)c1ccc2[nH]nc(-c3nccc(O[C@@H]4CCCNC4)n3)c2c1 [Example 498]
364 | > 1000 | CC(C)Nc1cc(=O)[nH]c(-c2c[nH]c3ccc(-c4c(F)cccc4F)cc23)n1 [Example 499]
9 | 19 | CC(C)Nc1nc(-c2c[nH]c3ccc(-c4c(F)cccc4F)cc23)cc(=O)[nH]1 [Example 500]
34 | 91 | CN(C)c1nc(-c2n[nH]c3ccc(-c4c(F)cccc4F)cc23)cc(=O)[nH]1 [Example 526]
834 | 565 | O=c1cc(-c2n[nH]c3ccc(-c4c(F)cccc4F)cc23)nc[nH]1 [Example 530]
70 | 262 | CCCCc1nc(-c2n[nH]c3ccc(-c4c(F)cccc4F)cc23)cc(=O)[nH]1 [Example 535]
70 | 396 | N#Cc1ccc2[nH]nc(-c3cncc(N[C@@H]4CCCNC4)n3)c2c1 [Example 540]
30 | 58 | O=c1cc(-c2n[nH]c3ccc(-c4c(F)cccc4F)cc23)nc(N2CC[C@H](O)C2)[nH]1 [Example 543]
